Patent US20230131899A1, “INHIBITORS OF MICROBIALLY INDUCED AMYLOID” (Axial Therapeutics, Inc., priority 2020, published 2023)
Read-outs that look alike come from different tables or passages of the source.

Target: T1, human α-synuclein (Homo sapiens, UniProt P37840)
T1 construct: the full-length gene for untagged human α-synuclein was inserted; made in house; host or cells: E. coli BL21(DE3), plasmid derived from pT7 or pET11a
Assay: Cell-free Thioflavin T assay of α-synuclein aggregation (αSyn ThT Assay)
Format: biochemical
Conditions: αSyn 50 μM
Procedure, shortened: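 Inhibition is reported as 100% minus background-corrected ThT signal relative to vehicle wells, taken at 36, 47, 48 or 72 h or the last read. Reactions held 50 μM recombinant α-synuclein, 20-100 μM compound, 20-40 μM ThT and 1% DMSO. Incubation was at 37° C., shaken, with a glass bead.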

[1] = class symbol, compounds 100 μM, read-out: αSyn ThT Assay % inhibition, activity range
[2] = mean percent inhibition relative to DMSO control, compounds 100 μM, read-out: αSyn ThT Assay % inhibition
[3] = mean % inhibition of αSyn aggregation relative to DMSO control, compounds at 100 μM, read-out: αSyn ThT Assay % Inhibition
[4] = compounds at 100 μM, class symbol, read-out: αSyn ThT Assay % Inhibition (activity range)

Compound `O=C(O)C1CN(CC2CCOCC2)c2c(-c3cccc(C(F)(F)F)c3)c(Cc3cccc4ccccc34)c(Cl)c(=O)n21` (centres unmarked) [Compound 182, 6-chloro-7-(naphthalen-1-ylmethyl)-5-oxo-1-((tetrahydro-2H-pyran-4-yl)methyl)-8-(3-(trifluoromethyl)phenyl)-1,2,3,5-tetrahydroimidazo[1,2-a]pyridine-3-carboxylic acid] has an inhibition at 100 µM [1] of 31 to 60% and an inhibition at 100 µM [2] of 33%.

`CN1CC(C(=O)O)n2c(c(-c3cccc(C(F)(F)F)c3)c(Cc3cccc4ccccc34)c(C(=O)NC(C)(C)C)c2=O)S1(=O)=O` (centres unmarked) [Compound 158, 7-(tert-butylcarbamoyl)-2-methyl-8-(naphthalen-1-ylmethyl)-6-oxo-9-(3-(trifluoromethyl)phenyl)-3,4-dihydro-2H,6H-pyrido[1,2-e][1,2,5]thiadiazine-4-carboxylic acid 1,1-dioxide] showed an inhibition at 100 µM [1] greater than 60% and an inhibition at 100 µM [2] of 79%.

`O=C(O)C1CN(Cc2cccc3ccccc23)c2c(-c3cccc(C(F)(F)F)c3)c(Cc3cccc4ccccc34)c(Cl)c(=O)n21` (centres unmarked) [Compound 200, 6-chloro-1,7-bis(naphthalen-1-ylmethyl)-5-oxo-8-(3-(trifluoromethyl)phenyl)-1,2,3,5-tetrahydroimidazo[1,2-a]pyridine-3-carboxylic acid] showed an inhibition at 100 µM [1] greater than 60% and an inhibition at 100 µM [2] of 84%.

`CCNC(=O)c1c(Cc2cccc3ccccc23)c(-c2cccc(C(F)(F)F)c2)c2n(c1=O)C(C(=O)O)CN(C)S2(=O)=O` (centres unmarked) [Compound 156, 7-(ethylcarbamoyl)-2-methyl-8-(naphthalen-1-ylmethyl)-6-oxo-9-(3-(trifluoromethyl)phenyl)-3,4-dihydro-2H,6H-pyrido[1,2-e][1,2,5] thiadiazine-4-carboxylic acid 1,1-dioxide] gave an inhibition at 100 µM [1] greater than 60% and an inhibition at 100 µM [2] of 70%.

Compound `O=C(O)C1CN(Cc2ccccc2)c2c(-c3cccc(C(F)(F)F)c3)c(Cc3cccc4ccccc34)c(Cl)c(=O)n21` (centres unmarked) [Compound 004, 1-benzyl-6-chloro-7-(naphthalen-1-ylmethyl)-5-oxo-8-(3-(trifluoromethyl)phenyl)-1,2,3,5-tetrahydroimidazo[1,2-a]pyridine-3-carboxylic acid] has an inhibition at 100 µM [1] of 31 to 60% and an inhibition at 100 µM [2] of 55%.

`Cn1c(=O)c2c(ncn2CCCCN2CC(C(=O)O)n3c(c(-c4cccc(C(F)(F)F)c4)c(Cc4cccc5ccccc45)cc3=O)S2(=O)=O)n(C)c1=O` (centres unmarked) [Compound 033, 2-(4-(1,3-dimethyl-2,6-dioxo-1,2,3,6-tetrahydro-7H-purin-7-yl)butyl)-8-(naphthalen-1-ylmethyl)-6-oxo-9-(3-(trifluoromethyl)phenyl)-3,4-dihydro-2H,6H-pyrido[1,2-e][1,2,5]thiadiazine-4-carboxylic acid 1,1-dioxide] showed an inhibition at 100 µM [3] of 6% and an inhibition at 100 µM [4] of -10 to 10%.

`CCCN1CC(C(=O)O)n2c(c(-c3cccc(C(F)(F)F)c3)c(Cc3cccc4ccccc34)c(NC(=O)CC)c2=O)S1(=O)=O` (centres unmarked) [Compound 153, 8-(naphthalen-1-ylmethyl)-6-oxo-7-propionamido-2-propyl-9-(3-(trifluoromethyl)phenyl)-3,4-dihydro-2H,6H-pyrido[1,2-e][1,2,5]thiadiazine-4-carboxylic acid 1,1-dioxide] gave an inhibition at 100 µM [1] of 31 to 60% and an inhibition at 100 µM [2] of 48%.

For `Cn1c(=O)c2c(nc(CCCCCCN3CC(C(=O)O)n4c(c(-c5cccc(C(F)(F)F)c5)c(Cc5cccc6ccccc56)cc4=O)S3(=O)=O)n2C)n(C)c1=O` (centres unmarked) [Compound 046, 8-(naphthalen-1-ylmethyl)-6-oxo-9-(3-(trifluoromethyl)phenyl)-2-(6-(1,3,7-trimethyl-2,6-dioxo-2,3,6,7-tetrahydro-1H-purin-8-yl)hexyl)-3,4-dihydro-2H,6H-pyrido[1,2-e][1,2,5]thiadiazine-4-carboxylic acid 1,1-dioxide], the inhibition at 100 µM [3] was 28% and the inhibition at 100 µM [4] was 11 to 30%.

Work on `CC(C)CN1CC(C(=O)O)n2c1c(-c1cccc(C(F)(F)F)c1)c(Cc1cccc3ccccc13)c(Cl)c2=O` (centres unmarked) [Compound 164, 6-chloro-1-isobutyl-7-(naphthalen-1-ylmethyl)-5-oxo-8-(3-(trifluoromethyl)phenyl)-1,2,3,5-tetrahydroimidazo[1,2-a]pyridine-3-carboxylic acid] yielded an inhibition at 100 µM [1] of 31 to 60% and an inhibition at 100 µM [2] of 43%.

Work on `N#Cc1cccc(CN2CC(C(=O)O)n3c2c(-c2cccc(C(F)(F)F)c2)c(Cc2cccc4ccccc24)c(Cl)c3=O)c1` (centres unmarked) [Compound 168, 6-chloro-1-(3-cyanobenzyl)-7-(naphthalen-1-ylmethyl)-5-oxo-8-(3-(trifluoromethyl)phenyl)-1,2,3,5-tetrahydroimidazo[1,2-a]pyridine-3-carboxylic acid] yielded an inhibition at 100 µM [1] of 31 to 60% and an inhibition at 100 µM [2] of 43%.

Compound `O=C(O)C1CN(CC2CCCCC2)c2c(-c3cccc(C(F)(F)F)c3)c(Cc3cccc4ccccc34)c(Cl)c(=O)n21` (centres unmarked) [Compound 180, 6-chloro-1-(cyclohexylmethyl)-7-(naphthalen-1-ylmethyl)-5-oxo-8-(3-(trifluoromethyl)phenyl)-1,2,3,5-tetrahydroimidazo[1,2-a]pyridine-3-carboxylic acid] has an inhibition at 100 µM [1] greater than 60% and an inhibition at 100 µM [2] of 63%.

`O=C(O)C1CSc2c(-c3cccc(C(F)(F)F)c3)c(C(F)(F)c3cccc4ccccc34)cc(=O)n21` (centres unmarked) [Compound 073, 7-(difluoro(naphthalen-1-yl)methyl)-5-oxo-8-(3-(trifluoromethyl)phenyl)-2,3-dihydro-5H-thiazolo[3,2-a]pyridine-3-carboxylic acid] gave an inhibition at 100 µM [3] of 76% and an inhibition at 100 µM [4] greater than 60%.

With `CCCN1CC(C(=O)O)n2c(c(-c3cccc(C(F)(F)F)c3)c(Cc3cccc4ccccc34)c(O)c2=O)S1(=O)=O` (centres unmarked) [Compound 141, 7-hydroxy-8-(naphthalen-1-ylmethyl)-6-oxo-2-propyl-9-(3-(trifluoromethyl)phenyl)-3,4-dihydro-2H,6H-pyrido[1,2-e][1,2,5]thiadiazine-4-carboxylic acid 1,1-dioxide] the inhibition at 100 µM [1] was greater than 60% and the inhibition at 100 µM [2] was 79%.

For `O=C(O)C1CSc2c(-c3cccc(C(F)(F)F)c3)c(Cc3cccc4ccccc34)cc(=S)n21` (centres unmarked) [Compound 054, 7-(naphthalen-1-ylmethyl)-5-thioxo-8-(3-(trifluoromethyl)phenyl)-2,3-dihydro-5H-thiazolo[3,2-a]pyridine-3-carboxylic acid], the inhibition at 100 µM [3] was 39% and the inhibition at 100 µM [4] was 31 to 60%.

`CCCN1CC(C(=O)O)n2c(c(-c3cccc(C(F)(F)F)c3)c(Cc3cccc4ccccc34)c(OCC)c2=O)S1(=O)=O` (centres unmarked) [Compound 143, 7-ethoxy-8-(naphthalen-1-ylmethyl)-6-oxo-2-propyl-9-(3-(trifluoromethyl)phenyl)-3,4-dihydro-2H,6H-pyrido[1,2-e][1,2,5]thiadiazine-4-carboxylic acid 1,1-dioxide] was tested, and the inhibition at 100 µM [1] was greater than 60% and the inhibition at 100 µM [2] was 96%.

In the case of `NC(=O)c1c(Cc2cccc3ccccc23)c(-c2cccc(C(F)(F)F)c2)c2n(c1=O)C(C(=O)O)CN(CCCO)S2(=O)=O` (centres unmarked) [Compound 184, 7-carbamoyl-2-(3-hydroxypropyl)-8-(naphthalen-1-ylmethyl)-6-oxo-9-(3-(trifluoromethyl)phenyl)-3,4-dihydro-2H,6H-pyrido[1,2-e][1,2,5]thiadiazine-4-carboxylic acid 1,1-dioxide], the inhibition at 100 µM [1] is reported as greater than 60% and the inhibition at 100 µM [2] is reported as 75%.
